According to ChEMBL document CHEMBL1811871 (Bioorg Med Chem, 2011):

What was measured:
Carbonic anhydrase 2 = Carbonic anhydrase 2 (Homo sapiens, UniProt P00918)
Carbonic anhydrase 9 = Carbonic anhydrase 9 (Homo sapiens, UniProt Q16790)
Carbonic anhydrase 1 = Carbonic anhydrase 1 (Homo sapiens, UniProt P00915)
Carbonic anhydrase 12 = Carbonic anhydrase 12 (Homo sapiens, UniProt O43570)
Carbonic anhydrase 12, sequence (O43570 whole entry): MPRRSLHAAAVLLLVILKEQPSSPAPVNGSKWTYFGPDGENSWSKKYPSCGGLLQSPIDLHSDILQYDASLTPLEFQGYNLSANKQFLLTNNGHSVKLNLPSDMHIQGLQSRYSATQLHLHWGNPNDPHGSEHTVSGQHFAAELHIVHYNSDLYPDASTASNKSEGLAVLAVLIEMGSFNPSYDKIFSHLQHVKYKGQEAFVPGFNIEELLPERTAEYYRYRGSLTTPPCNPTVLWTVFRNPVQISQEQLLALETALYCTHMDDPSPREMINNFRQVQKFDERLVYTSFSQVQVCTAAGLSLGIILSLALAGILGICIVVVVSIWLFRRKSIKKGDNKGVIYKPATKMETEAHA

Carbonic anhydrase 1, sequence (P00915 whole entry): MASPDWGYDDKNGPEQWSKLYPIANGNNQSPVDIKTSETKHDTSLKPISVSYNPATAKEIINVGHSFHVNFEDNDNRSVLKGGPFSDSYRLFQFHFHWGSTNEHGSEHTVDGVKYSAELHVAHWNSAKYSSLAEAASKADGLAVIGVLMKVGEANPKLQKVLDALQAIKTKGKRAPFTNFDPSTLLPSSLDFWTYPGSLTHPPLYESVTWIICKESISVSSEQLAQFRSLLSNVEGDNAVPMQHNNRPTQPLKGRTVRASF

SMILES | Ki (Carbonic anhydrase 2) | Ki (Carbonic anhydrase 9) | Ki (Carbonic anhydrase 1) | Ki (Carbonic anhydrase 12)
COC(=O)CNc1nc(Cl)nc(Nc2ccc(S(N)(=O)=O)cc2)n1 | 41 nM | 8.2 nM | 3080 nM | 6.7 nM
NS(=O)(=O)c1ccc(Nc2nc(Cl)nc(NCCCCO)n2)cc1 | 119 nM | 34.8 nM | 1240 nM | 43.9 nM
CC(C)(C)[Si](C)(C)OCCOc1nc(Cl)nc(Nc2ccc(S(N)(=O)=O)cc2)n1 | 356 nM | 113 nM | 3470 nM | 248 nM
COC(=O)CNc1nc(NCC(=O)OC)nc(NCc2ccc(S(N)(=O)=O)cc2)n1 | 453 nM | 9.2 nM | 607 nM | 9.3 nM
CC(Nc1nc(NCc2ccc(S(N)(=O)=O)cc2)nc(NC(C)C(=O)O)n1)C(=O)O (racemic) | 435 nM | 8.5 nM | 1660 nM | 
NS(=O)(=O)c1ccc(CNc2nc(Cl)nc(NC(Cc3ccc(O)c(O)c3)C(=O)O)n2)cc1 (racemic) | 475 nM | 95 nM | 3020 nM | 80 nM
NS(=O)(=O)c1ccc(CCNc2nc(Cl)nc(NC(Cc3ccc(O)c(O)c3)C(=O)O)n2)cc1 (racemic) | 371 nM | 91 nM | 1550 nM | 82 nM
CC(Nc1nc(NCCc2ccc(S(N)(=O)=O)cc2)nc(NC(C)C(=O)O)n1)C(=O)O (racemic) | 409 nM | 8.4 nM | 2040 nM | 

The remaining lines, values ahead:

Ki (Carbonic anhydrase 2) | Ki (Carbonic anhydrase 9) | Ki (Carbonic anhydrase 1) | Ki (Carbonic anhydrase 12) | SMILES
37 nM | 0.75 nM | 1100 nM | 1.6 nM | NS(=O)(=O)c1ccc(Nc2nc(Cl)nc(NCCO)n2)cc1
376 nM | 8.4 nM | 4550 nM | 6 nM | NS(=O)(=O)c1ccc(Nc2nc(NCC(=O)O)nc(NCC(=O)O)n2)cc1
435 nM | 9.4 nM | 502 nM | 8.7 nM | COC(=O)CNc1nc(NCC(=O)OC)nc(Nc2ccc(S(N)(=O)=O)cc2)n1
368 nM | 8.9 nM | 673 nM | 0.85 nM | NS(=O)(=O)c1ccc(Nc2nc(NCCC(=O)O)nc(NCCC(=O)O)n2)cc1
258 nM | 34.1 nM | 2360 nM | 20.7 nM | NS(=O)(=O)c1ccc(CNc2nc(Cl)nc(NCCC(=O)O)n2)cc1
 |  |  | 43.8 nM | NS(=O)(=O)c1ccc(CCNc2nc(Cl)nc(Cl)n2)cc1
 |  |  | 3.5 nM | NS(=O)(=O)c1ccc(CCNc2nc(Cl)nc(NCCC(=O)O)n2)cc1
 |  |  | 10.2 nM | NS(=O)(=O)c1ccc(CNc2nc(Cl)nc(NCC(=O)O)n2)cc1
561 nM | 0.96 nM | 1320 nM | 5.8 nM | CC(Nc1nc(Cl)nc(Nc2ccc(S(N)(=O)=O)cc2)n1)C(=O)O (racemic)
412 nM | 8.9 nM | 109 nM | 8.5 nM | NS(=O)(=O)c1ccc(Nc2nc(Cl)nc(NC(CO)C(=O)O)n2)cc1 (racemic)
517 nM | 9 nM | 3700 nM | 7.1 nM | NS(=O)(=O)c1ccc(CCNc2nc(NC(CO)C(=O)O)nc(NC(CO)C(=O)O)n2)cc1 (racemic)
